According to ChEMBL document CHEMBL1122477, “Neuroleptic activity and dopamine-uptake inhibition in 1-piperazino-3-phenylindans” (J Med Chem, 1983):

Assays:
[1] = species on record: Mus musculus; assay: Assessed for thymoleptic activity by its ability to antagonize tetrabenazine ptosis in mice; format: functional
[2] = biological target: Dopamine receptor
Description: Effect on synaptosomal uptake inhibition of Dopamine receptor

[3] = test system: Rattus norvegicus; assay: Tested orally in rats for antagonism of stereotypies induced by amphetamine; format: functional
[4] = species on record: Mus musculus; assay: animal or person; details: ip
Description: (§1) Compound (administered intraperitoneally) was assessed for neuroleptic activity to antagonize methyl phenidate induced stereotypes in mice

[5] = species on record: Rattus norvegicus; assay: animal or person; details: po
Description: (§2) Ability to induce catalepsy in rats perorally, an effect normally related to clinical extrapyramidal side effects

[6] = biological target: T1, Sodium-dependent serotonin transporter (Rattus norvegicus, UniProt P31652); assay: Effect on synaptosomal uptake inhibition of 5-hydroxytryptamine (5-HT); format: functional
T1 sequence (P31652 whole entry): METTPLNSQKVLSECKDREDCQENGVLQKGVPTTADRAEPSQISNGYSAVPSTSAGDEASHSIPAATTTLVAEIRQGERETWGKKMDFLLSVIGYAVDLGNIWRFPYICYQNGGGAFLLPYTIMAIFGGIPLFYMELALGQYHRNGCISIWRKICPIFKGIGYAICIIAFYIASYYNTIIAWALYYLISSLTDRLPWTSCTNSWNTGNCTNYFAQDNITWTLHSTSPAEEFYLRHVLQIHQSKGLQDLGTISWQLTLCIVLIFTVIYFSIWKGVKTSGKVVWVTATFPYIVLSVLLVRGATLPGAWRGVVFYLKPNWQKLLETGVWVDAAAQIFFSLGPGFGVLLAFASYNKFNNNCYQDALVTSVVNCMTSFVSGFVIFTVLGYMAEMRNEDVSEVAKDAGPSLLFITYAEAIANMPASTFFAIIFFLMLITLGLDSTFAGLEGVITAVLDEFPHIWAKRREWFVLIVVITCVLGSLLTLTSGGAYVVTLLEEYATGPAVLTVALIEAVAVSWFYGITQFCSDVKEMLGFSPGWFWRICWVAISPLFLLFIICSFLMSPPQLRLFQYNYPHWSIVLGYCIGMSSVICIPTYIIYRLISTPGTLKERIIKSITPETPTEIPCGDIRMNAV

[7] = biological target: Norepinephrine transporter (Rattus norvegicus, UniProt Q9WTR4)
Norepinephrine transporter, sequence (Q9WTR4 whole entry): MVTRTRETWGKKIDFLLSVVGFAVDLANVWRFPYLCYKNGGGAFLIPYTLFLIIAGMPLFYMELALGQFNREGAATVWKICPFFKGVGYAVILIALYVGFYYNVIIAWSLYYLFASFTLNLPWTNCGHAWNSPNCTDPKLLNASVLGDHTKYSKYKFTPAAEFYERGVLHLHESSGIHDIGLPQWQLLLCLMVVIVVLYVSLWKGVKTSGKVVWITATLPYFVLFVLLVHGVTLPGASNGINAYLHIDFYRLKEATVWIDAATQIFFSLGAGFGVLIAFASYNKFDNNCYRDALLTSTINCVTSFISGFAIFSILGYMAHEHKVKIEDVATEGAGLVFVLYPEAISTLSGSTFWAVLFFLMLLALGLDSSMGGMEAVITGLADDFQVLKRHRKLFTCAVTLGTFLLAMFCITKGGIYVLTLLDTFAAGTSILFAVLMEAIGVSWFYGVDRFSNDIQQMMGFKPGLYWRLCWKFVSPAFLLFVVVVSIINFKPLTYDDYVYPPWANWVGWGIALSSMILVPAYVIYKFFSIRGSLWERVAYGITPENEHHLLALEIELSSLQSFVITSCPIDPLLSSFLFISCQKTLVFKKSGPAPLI
Description: (§3) Effect on synaptosomal uptake inhibition of Noradrenaline (NA)

[8] = species on record: Mus musculus
Description: as §1

[9] = biological target: T1, Sodium-dependent serotonin transporter
[10] = biological target: Sodium-dependent dopamine transporter (Rattus norvegicus, UniProt P23977)
Sodium-dependent dopamine transporter, sequence (P23977 whole entry): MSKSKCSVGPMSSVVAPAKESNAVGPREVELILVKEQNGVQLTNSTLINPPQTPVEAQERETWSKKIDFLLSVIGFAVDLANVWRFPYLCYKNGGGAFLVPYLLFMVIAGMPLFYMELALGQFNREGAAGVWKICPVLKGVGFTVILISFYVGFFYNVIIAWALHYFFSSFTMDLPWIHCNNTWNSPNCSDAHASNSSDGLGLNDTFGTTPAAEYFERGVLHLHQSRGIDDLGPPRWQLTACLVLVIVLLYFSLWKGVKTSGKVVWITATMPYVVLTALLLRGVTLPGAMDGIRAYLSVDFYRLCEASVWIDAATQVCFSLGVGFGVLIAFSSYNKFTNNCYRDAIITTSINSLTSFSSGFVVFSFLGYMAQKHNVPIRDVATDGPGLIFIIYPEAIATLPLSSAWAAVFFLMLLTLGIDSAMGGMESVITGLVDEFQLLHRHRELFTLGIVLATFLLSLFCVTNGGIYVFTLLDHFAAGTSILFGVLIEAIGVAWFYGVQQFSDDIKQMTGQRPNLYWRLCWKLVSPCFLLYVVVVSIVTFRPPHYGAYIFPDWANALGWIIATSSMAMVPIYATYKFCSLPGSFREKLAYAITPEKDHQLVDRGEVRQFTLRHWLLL
Description: Effect on synaptosomal uptake inhibition of Dopamine transporter

[11] = biological target: Adrenergic receptor beta (Rattus norvegicus, UniProt P18090+P10608+P26255)
Description: as §3

[12] = species on record: Rattus norvegicus
Description: as §2

[13] = Rattus norvegicus, po, read-out: ED50

Row | SMILES | ED50 [3, 13] | ED50 [4] | ED50 [5] | ED50 [8] | further results
1 | Cl.Cl.OCCN1CCN(C2CC(c3ccc(Cl)cc3Cl)c3ccccc32)CC1 (cis isomer) | – | – | – | – | ED50 [1]: >94 µM/kg; IC50 [2]: 2000 nM
2 | CSc1ccc2c(c1)C(N1CCN(CCO)CC1)CC2c1ccc(F)cc1 (stereo not given) | 20 µmol/kg | 2.8 µmol/kg | 14 µmol/kg | – | –
3 | CN1CCN(C2CC(c3ccc(Cl)c(Cl)c3)c3ccccc32)CC1.Cl.Cl (single isomer, unassigned; 96) | – | – | – | – | IC50 [6]: 230 nM; ED50 [1]: 26 µM/kg; IC50 [7]: 7.8 nM; IC50 [2]: 10 nM
4 | OCCN1CCN(C2CC(c3ccc(F)cc3)c3ccccc32)CC1 (stereo not given) | – | > 118 µmol/kg | – | – | –
5 | Cl.Cl.OCC(CO)N1CCN(C2CC(c3ccc(F)cc3)c3ccc(F)cc32)CC1 (trans isomer) | 25 µmol/kg | – | 124 µmol/kg | 4.2 µM/kg | –
6 | Fc1ccc(C2CC(N3CCN(CCc4ccccc4)CC3)c3cc(F)ccc32)cc1 (trans isomer) | – | – | – | 37 µM/kg | –
7 | Cl.Cl.OCCCN1CCN(C2CC(c3ccc(F)cc3)c3ccc(F)cc32)CC1 (stereo not given) | 5.2 µmol/kg | – | 8.3 µmol/kg | 3.7 µM/kg | –
8 | OCCN1CCN([C@@H]2C[C@@H](c3ccc(Cl)cc3)c3ccc(Cl)cc32)CC1 (relative stereo) | – | > 86 µmol/kg | > 86 µmol/kg | – | –
9 | CCN1CCN(C2CC(c3ccc(F)cc3)c3ccc(F)cc32)CC1.Cl.Cl (trans isomer) | 14 µmol/kg | – | 53 µmol/kg | 7 µM/kg | –
10 | CN1CCN(C2Cc3ccccc3Sc3ccc(Cl)cc32)CC1 (stereo not given) [CLOROTEPINE] | 0.56 µmol/kg | 6.7 µmol/kg | 4.5 µmol/kg | – | –
11 | CC(C)c1ccc2c(c1)C(N1CCN(CCO)CC1)CC2c1ccc(F)cc1 (trans isomer) | 26 µmol/kg | 9.6 µmol/kg | 17 µmol/kg | – | –
12 | CC(C)(O)CN1CCN(C2CC(c3ccc(F)cc3)c3ccc(F)cc32)CC1 (trans isomer) | 30 µmol/kg | > 87 µmol/kg | – | – | –
13 | CN1Cc2c(N)cccc2C(c2ccccc2)C1 (stereo not given) [NOMIFENSINE] | – | – | – | – | IC50 [7]: 6.6 nM; IC50 [2]: 48 nM
14 | CN1CCN(C2CC(c3ccc(Cl)c(Cl)c3)c3ccccc32)CC1.Cl.Cl (stereo in doubt; 97) | – | – | – | – | IC50 [6]: 630 nM; ED50 [1]: 100 µM/kg; IC50 [7]: 7.7 nM; IC50 [2]: 4.4 nM
15 | CN1CCN(C2CCC(c3ccc(F)cc3)c3ccc(F)cc32)CC1 (trans isomer) | – | – | – | >117 µM/kg | –
16 | CN1CCN(C2CC(c3ccc(F)cc3)c3ccc(F)cc32)CC1.Cl.Cl (stereo in doubt; 56) | – | – | – | >95 µM/kg | ED50 [3]: >95 µM/kg; IC50 [9]: 6100 nM; IC50 [10]: 110 nM
17 | Cl.Cl.OCCN1CCN(C2CC(c3ccc(F)cc3)c3ccc(F)cc32)CC1 (stereo not given) | – | – | 184 µmol/kg | 7 µM/kg | ED50 [3]: 14 µM/kg; IC50 [9]: 2300 nM; IC50 [11]: 150 nM
18 | Cl.Cl.OCCN1CCN(C2CC(c3ccc(Cl)c(Cl)c3)c3ccccc32)CC1 (cis isomer) | – | – | – | – | IC50 [6]: 600 nM; ED50 ([1]; Mus musculus, read-out: ED50): 72 µmol/kg; IC50 [7]: 10 nM; IC50 [2]: 12 nM
19 | Cl.Cl.Fc1ccc(C2CC(N3CCN(CC4CC4)CC3)c3cc(F)ccc32)cc1 (stereo in doubt; 60) | – | – | – | >91 µM/kg | –
20 | CCN1CCN(C2CC(c3ccc(F)cc3)c3ccc(F)cc32)CC1.Cl.Cl (cis isomer) | – | – | – | >96 µM/kg | –
21 | OCCCN1CCN(C2CC(c3ccc(F)cc3)c3ccc(F)cc32)CC1 (cis isomer) | – | – | – | >90 µM/kg | –
22 | CN1CCN(C2CC(c3ccc(Cl)c(Cl)c3)c3ccccc32)CC1.Cl.Cl (trans isomer) | – | – | – | – | IC50 [6]: 200 nM; ED50 [1]: 48 µM/kg; IC50 [7]: 32 nM; IC50 [2]: 11 nM
23 | Cl.Cl.OCCCN1CCN(C2CC(c3ccc(Cl)c(Cl)c3)c3ccccc32)CC1 (stereo not given) | – | – | – | – | IC50 [6]: 440 nM; ED50 [1]: 71 µM/kg; IC50 [7]: 0.3 nM; IC50 [2]: 5.6 nM
24 | NC(=O)CN1CCN(C2CC(c3ccc(F)cc3)c3ccc(F)cc32)CC1 (trans isomer) | – | > 88 µmol/kg | – | – | –
25 | CN1CCN(C2CC(c3ccc(Cl)c(Cl)c3)c3ccccc32)CC1.Cl.Cl (single isomer, unassigned; 95) | – | – | – | – | IC50 [6]: 2500 nM; ED50 [1]: >91 µM/kg; IC50 [7]: 120 nM; IC50 [2]: 340 nM
26 | Fc1ccc(C2CC(N3CCN(C/C=C/c4ccccc4)CC3)c3cc(F)ccc32)cc1 (stereo in doubt; 63) | – | 57 µmol/kg | – | – | IC50 [9]: 160 nM; IC50 [10]: 340 nM
27 | COc1ccc2c(c1)C(N1CCN(CCO)CC1)CC2c1ccc(F)cc1 (trans isomer) | 38 µmol/kg | 19 µmol/kg | 102 µmol/kg | – | –
28 | Cl.Cl.OCC(O)CN1CCN(C2CC(c3ccc(F)cc3)c3ccc(F)cc32)CC1 (trans isomer) | 33 µmol/kg | – | – | 2.9 µM/kg | ED50 [12]: >280 µM/kg
